Test results reported in US20240254119A1 (THIRD HARMONIC BIO, INC., priority 2022, published 2024).

Columns and labels:
wtKIT = target: T1, wtKIT (Homo sapiens, UniProt P10721); experiment: Caliper biochemical assay, wtKIT; conditions: Table 6, read-out: KIT Biochemical IC50 avg
T1 construct: 1888289AM in the reaction mixtures
Summary of the method: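 Mobility-shift read-out: after EDTA stop, fluorescent peptide substrate and product resolved electrophoretically on LabChip 3000. Reaction ran 3 h at 25° C with 400 μM ATP, Mn^2+ cofactor, 5.0 nM wtKIT, 1 μM FAM-peptide, pH 7.5 HEPES buffer; no-enzyme wells defined full inhibition.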

CSF-1R = target: T2, CSF-1R (Homo sapiens, UniProt P07333); experiment: Caliper biochemical assay, CSF-1R; conditions: Table 6
T2 construct: purchased Invitrogen PV3249 (lot 662393N)
T2 sequence (P07333 20-972): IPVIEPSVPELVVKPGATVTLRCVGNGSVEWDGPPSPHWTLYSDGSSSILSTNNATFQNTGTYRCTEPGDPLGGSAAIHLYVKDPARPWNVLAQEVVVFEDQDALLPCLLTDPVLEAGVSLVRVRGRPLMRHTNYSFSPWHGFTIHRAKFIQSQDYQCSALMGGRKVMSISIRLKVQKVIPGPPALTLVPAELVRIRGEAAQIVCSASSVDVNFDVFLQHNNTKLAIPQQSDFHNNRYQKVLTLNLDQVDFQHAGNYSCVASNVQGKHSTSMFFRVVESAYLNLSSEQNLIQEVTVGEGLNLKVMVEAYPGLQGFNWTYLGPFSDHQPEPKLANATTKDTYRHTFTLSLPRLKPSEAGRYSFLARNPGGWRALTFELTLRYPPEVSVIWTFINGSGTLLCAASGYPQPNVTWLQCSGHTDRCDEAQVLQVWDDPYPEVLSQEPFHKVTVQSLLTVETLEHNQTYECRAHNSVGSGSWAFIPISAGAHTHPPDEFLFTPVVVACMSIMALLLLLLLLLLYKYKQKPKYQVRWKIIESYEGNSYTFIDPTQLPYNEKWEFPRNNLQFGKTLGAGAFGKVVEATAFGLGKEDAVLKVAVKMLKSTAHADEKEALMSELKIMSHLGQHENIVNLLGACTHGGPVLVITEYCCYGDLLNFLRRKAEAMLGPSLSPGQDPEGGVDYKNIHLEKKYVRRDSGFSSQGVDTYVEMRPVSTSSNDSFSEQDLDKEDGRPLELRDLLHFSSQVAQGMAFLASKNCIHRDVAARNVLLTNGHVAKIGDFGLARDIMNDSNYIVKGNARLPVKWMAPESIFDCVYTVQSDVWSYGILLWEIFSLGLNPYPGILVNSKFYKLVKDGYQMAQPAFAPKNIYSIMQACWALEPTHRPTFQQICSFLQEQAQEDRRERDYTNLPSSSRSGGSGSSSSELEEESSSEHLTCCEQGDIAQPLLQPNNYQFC
Summary of the method: (§1)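 Mobility-shift readout: after EDTA quench, fluorescent peptide and product are resolved electrophoretically on a LabChip and measured by fluorescence. Reactions contain enzyme, carboxyfluorescein peptide, ATP, Mn^2+ and compound, run 3 h at 25° C; 100% inhibition control lacks enzyme.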

PDGFRα = target: T3, PDGFRα (Homo sapiens, UniProt P16234); experiment: Caliper biochemical assay, PDGFRα; conditions: Table 6
T3 construct: purchased Millipore 14-467 (lot 26321_ACTI)
T3 sequence (P16234 24-1089): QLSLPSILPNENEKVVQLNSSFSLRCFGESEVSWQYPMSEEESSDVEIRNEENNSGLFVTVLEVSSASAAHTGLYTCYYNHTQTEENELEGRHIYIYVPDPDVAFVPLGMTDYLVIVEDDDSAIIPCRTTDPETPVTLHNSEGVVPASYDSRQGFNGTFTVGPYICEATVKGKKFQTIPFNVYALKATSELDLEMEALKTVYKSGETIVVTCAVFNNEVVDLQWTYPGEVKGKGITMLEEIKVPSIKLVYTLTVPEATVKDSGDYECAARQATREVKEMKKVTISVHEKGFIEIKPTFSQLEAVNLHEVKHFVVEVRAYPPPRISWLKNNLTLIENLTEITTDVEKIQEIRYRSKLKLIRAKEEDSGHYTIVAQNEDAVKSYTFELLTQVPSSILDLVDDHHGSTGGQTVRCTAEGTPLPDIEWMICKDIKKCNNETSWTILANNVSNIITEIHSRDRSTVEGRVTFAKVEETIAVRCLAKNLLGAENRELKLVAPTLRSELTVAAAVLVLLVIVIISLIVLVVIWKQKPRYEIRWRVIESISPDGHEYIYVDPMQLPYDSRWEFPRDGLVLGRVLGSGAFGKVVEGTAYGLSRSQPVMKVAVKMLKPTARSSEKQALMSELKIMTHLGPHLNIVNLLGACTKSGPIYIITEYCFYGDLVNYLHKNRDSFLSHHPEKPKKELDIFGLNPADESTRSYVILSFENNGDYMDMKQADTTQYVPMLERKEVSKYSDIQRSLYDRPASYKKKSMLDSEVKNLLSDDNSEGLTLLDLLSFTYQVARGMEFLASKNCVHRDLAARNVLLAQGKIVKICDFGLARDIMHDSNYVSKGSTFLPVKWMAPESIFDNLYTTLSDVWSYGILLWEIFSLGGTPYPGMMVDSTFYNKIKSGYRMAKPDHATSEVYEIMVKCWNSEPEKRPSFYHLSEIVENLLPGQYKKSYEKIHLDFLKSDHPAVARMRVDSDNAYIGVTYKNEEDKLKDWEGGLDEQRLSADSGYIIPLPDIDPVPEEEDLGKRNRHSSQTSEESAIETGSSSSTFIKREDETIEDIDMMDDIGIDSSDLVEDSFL
Summary of the method: as §1

[1] = target: T4, BCRP (BCRP-MDCKII monolayer) (Homo sapiens, UniProt Q9UNQ0); experiment: MDCKII-BCRP bidirectional transport assay; type: in vitro ADME; conditions: for MDCK-BCRP: Papp A-B: apical to basolateral
T4 construct: host or cells: MDCKII (canine kidney) cells
T4 sequence (Q9UNQ0 1-655): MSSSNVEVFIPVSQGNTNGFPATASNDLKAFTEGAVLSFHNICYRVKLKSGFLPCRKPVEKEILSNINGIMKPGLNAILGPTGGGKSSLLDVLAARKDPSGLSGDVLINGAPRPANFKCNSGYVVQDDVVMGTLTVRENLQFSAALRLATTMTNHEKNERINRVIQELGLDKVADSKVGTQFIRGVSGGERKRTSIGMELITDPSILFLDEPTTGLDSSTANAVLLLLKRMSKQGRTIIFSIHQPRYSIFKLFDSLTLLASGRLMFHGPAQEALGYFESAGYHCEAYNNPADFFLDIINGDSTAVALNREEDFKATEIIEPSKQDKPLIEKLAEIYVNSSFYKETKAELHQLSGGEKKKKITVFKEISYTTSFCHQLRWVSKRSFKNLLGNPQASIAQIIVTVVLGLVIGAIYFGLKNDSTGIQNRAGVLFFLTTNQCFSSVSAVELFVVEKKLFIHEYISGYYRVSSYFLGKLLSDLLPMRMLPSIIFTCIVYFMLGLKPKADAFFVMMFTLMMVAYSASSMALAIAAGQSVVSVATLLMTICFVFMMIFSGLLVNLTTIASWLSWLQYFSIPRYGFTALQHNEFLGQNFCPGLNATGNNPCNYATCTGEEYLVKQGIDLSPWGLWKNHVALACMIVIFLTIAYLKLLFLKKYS
Summary of the method: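 Efflux ratios were derived from Papp values, alongside recovery, with compounds quantified by LC-MS/MS. Both directions were tested in duplicate across BCRP-MDCKII monolayers used on days 12–15. Incubation ran 120 min at 37° C, 5% CO2, after a 15 min preincubation in assay buffer.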

Kinetic solubility assay = type: physicochemical; conditions: kinetic solubility, 50 mM PB (pH 7.4), shaken 24 hours at RT
Summary of the method: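 Concentration in the filtrate was determined by UPLC-UV or HPLC-UV with a standard curve. Before that, compound (10 mM DMSO stock) in 50 mM PB at pH 7.4 was agitated 24 h at room temperature, then PTFE-filtered with centrifugation.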

T1 sequence (P10721 26-976): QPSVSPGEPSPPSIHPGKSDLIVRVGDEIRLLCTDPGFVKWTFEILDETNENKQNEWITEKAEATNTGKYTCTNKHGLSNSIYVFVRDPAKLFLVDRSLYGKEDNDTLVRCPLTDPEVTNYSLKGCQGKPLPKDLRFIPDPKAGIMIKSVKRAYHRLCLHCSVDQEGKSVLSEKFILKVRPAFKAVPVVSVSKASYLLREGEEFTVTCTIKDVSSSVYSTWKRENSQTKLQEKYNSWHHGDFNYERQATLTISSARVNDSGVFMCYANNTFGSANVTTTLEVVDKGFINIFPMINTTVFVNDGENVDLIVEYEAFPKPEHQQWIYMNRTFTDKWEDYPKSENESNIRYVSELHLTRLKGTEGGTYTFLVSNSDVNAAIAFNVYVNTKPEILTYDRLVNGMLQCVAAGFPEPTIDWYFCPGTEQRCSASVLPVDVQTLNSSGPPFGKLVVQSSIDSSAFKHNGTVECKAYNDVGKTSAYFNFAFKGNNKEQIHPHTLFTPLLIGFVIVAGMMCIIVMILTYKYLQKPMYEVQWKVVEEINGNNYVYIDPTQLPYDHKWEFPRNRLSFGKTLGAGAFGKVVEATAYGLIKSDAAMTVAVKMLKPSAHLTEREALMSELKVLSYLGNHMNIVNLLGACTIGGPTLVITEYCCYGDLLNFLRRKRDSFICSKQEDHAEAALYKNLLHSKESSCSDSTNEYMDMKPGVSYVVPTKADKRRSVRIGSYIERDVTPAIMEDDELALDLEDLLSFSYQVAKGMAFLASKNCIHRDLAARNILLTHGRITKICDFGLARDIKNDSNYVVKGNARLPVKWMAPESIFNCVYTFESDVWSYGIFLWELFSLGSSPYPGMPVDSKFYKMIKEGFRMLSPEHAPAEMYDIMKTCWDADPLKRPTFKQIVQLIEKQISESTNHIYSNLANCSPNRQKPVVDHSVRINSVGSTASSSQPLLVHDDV

Row | Compound | IC50 (wtKIT) [nM] | IC50 (CSF-1R) [nM] | IC50 (PDGFRα) [nM] | MDCK-BCRP: Efflux Ratio [1] | MDCK-BCRP: Papp A-B [1] | Solubility (μM) (Kinetic solubility assay)
1 | Cc1ccc(-c2noc(C3CCC(F)C3)n2)cc1NC(=O)c1cnc2ccccn12 (racemic) [Compound I-319] | ≤ 50 | ≤ 50 | 50 to 500 | 1.02 | 13.1 10^−6 cm/s | *** (a solubility greater than 2 μM and less than or equal to 10 μM)
2 | Cc1ccc(-c2noc(CC3CC(F)(F)C3)n2)cc1NC(=O)c1cnc2ccccn12 [Compound I-124] | ≤ 50 | ≤ 50 | 50 to 500 | 1.14 | 9.07 10^−6 cm/s | **** (a solubility less than or equal to 2 μM)
3 | Cc1ccc(-c2noc(C3CC(F)C3)n2)cc1NC(=O)c1cnc2ccccn12 (stereo not drawn) [Compound I-381] | ≤ 50 | ≤ 50 | 50 to 500 | 1.25 | 10.1 10^−6 cm/s | **** (a solubility less than or equal to 2 μM)
4 | Cc1ccc(-c2noc([C@H]3C[C@@H]3F)n2)cc1NC(=O)c1cnc2ccc(C#N)cn12 [Compound I-384] | ≤ 50 | ≤ 50 | 5000 to 30000 | 12.9 | 0.59 10^−6 cm/s | **** (a solubility less than or equal to 2 μM)
5 | Cc1ccc(-c2noc(C3CC4(CCC4)C3)n2)cc1NC(=O)c1cnc2ccccn12 [Compound I-367] | ≤ 50 | ≤ 50 | ≤ 50 | 1.18 | 0.83 10^−6 cm/s | **** (a solubility less than or equal to 2 μM)
6 | Cc1ccc(-c2noc(C3(N)CC4(CC(F)(F)C4)C3)n2)cc1NC(=O)c1cnc2ccccn12 [Compound I-307] | ≤ 50 | ≤ 50 | 500 to 5000 | 3.77 | 7.39 10^−6 cm/s | ** (a solubility greater than 10 μM and less than or equal to 50 μM)
7 | Cc1ccc(-c2noc(C3CCN3)n2)cc1NC(=O)c1cnc2ccccn12 (racemic) [Compound I-394] | ≤ 50 | 50 to 500 | 5000 to 30000 | 23.2 | 1.42 10^−6 cm/s | * (a solubility greater than 50 μM)
8 | Cc1ccc(-c2noc(C(C)O)n2)cc1NC(=O)c1cnc2ccccn12 (racemic) [Compound I-364] | 50 to 500 | ≤ 50 | 5000 to 30000 | 9.18 | 2.19 10^−6 cm/s | * (a solubility greater than 50 μM)
9 | COC(=O)N1CC(c2nc(-c3ccc(C)c(NC(=O)c4cnc5cc(OC[C@H](C)O)ccn45)c3)no2)C1 [Compound I-262] | ≤ 50 | ≤ 50 | 50 to 500 | 46.5 | 0.54 10^−6 cm/s | ** (a solubility greater than 10 μM and less than or equal to 50 μM)
10 | Cc1ccc(-c2noc(CC3CC3(F)F)n2)cc1NC(=O)c1cnc2ccccn12 (stereo not drawn) [Compound I-125] | ≤ 50 | ≤ 50 | 50 to 500 | 1.6 | 9.07 10^−6 cm/s | **** (a solubility less than or equal to 2 μM)
11 | Cc1ccc(-c2noc(C3CCS(=O)(=O)N3)n2)cc1NC(=O)c1cnc2ccccn12 (racemic) [Compound I-330] | ≤ 50 | ≤ 50 | 50 to 500 | 24.9 | 1.28 10^−6 cm/s | ** (a solubility greater than 10 μM and less than or equal to 50 μM)
12 | Cc1ccc(-c2noc([C@@H](C)O)n2)cc1NC(=O)c1cnc2ccccn12 [Compound I-270] | 50 to 500 | ≤ 50 | 5000 to 30000 | 20.8 | 1.3 10^−6 cm/s | * (a solubility greater than 50 μM)
13 | Cc1ccc(-c2noc([C@H]3C[C@@H]3F)n2)cc1NC(=O)c1cnc2ccc(F)cn12 [Compound I-288] | ≤ 50 | 50 to 500 | 500 to 5000 | 1.01 | 7.81 10^−6 cm/s | **** (a solubility less than or equal to 2 μM)
14 | Cc1ccc(-c2noc(C3CCC3F)n2)cc1NC(=O)c1cnc2ccccn12 (racemic) [Compound I-377] | ≤ 50 | ≤ 50 | 500 to 5000 | 0.98 | 7.81 10^−6 cm/s | *** (a solubility greater than 2 μM and less than or equal to 10 μM)
15 | Cc1ccc(-c2noc([C@H]3CC(F)(F)CN3)n2)cc1NC(=O)c1cnc2ccccn12 [Compound I-359] | ≤ 50 | 50 to 500 | 500 to 5000 | 7.14 | 4.68 10^−6 cm/s | * (a solubility greater than 50 μM)
16 | Cc1nc(-c2ccc(C)c(NC(=O)c3cnc4cc(C(F)F)ccn34)c2)no1 [Compound I-134] | ≤ 50 | 500 to 5000 | 500 to 5000 | 2.12 | 7.85 10^−6 cm/s | **** (a solubility less than or equal to 2 μM)
17 | COC(=O)N1CC(c2nc(-c3ccc(C)c(NC(=O)c4cnn5cc(C#N)ccc45)c3)no2)C1 [Compound I-204] | ≤ 50 | 50 to 500 | 5000 to 30000 | 6.11 | 3.27 10^−6 cm/s | *** (a solubility greater than 2 μM and less than or equal to 10 μM)
18 | Cc1nc(-c2ccc(Cl)c(NC(=O)c3cnc4ccccn34)c2)no1 [Compound I-172] | ≤ 50 | 50 to 500 | 500 to 5000 | 0.81 | 6.02 10^−6 cm/s | **** (a solubility less than or equal to 2 μM)
19 | Cc1ccc(-c2noc(C3CC(OCCF)C3)n2)cc1NC(=O)c1cnc2ccccn12 (stereo not drawn) [Compound I-369] | ≤ 50 | 50 to 500 | 500 to 5000 | 1.62 | 8.93 10^−6 cm/s | ** (a solubility greater than 10 μM and less than or equal to 50 μM)
20 | Cc1ccc(-c2noc([C@H]3CCC(=O)N3)n2)cc1NC(=O)c1cnc2ccccn12 (racemic) [Compound I-327] | 50 to 500 | ≤ 50 | 5000 to 30000 | 73.2 | 0.28 10^−6 cm/s | * (a solubility greater than 50 μM)
21 | COC(=O)N1CC(c2nc(-c3ccc(C)c(NC(=O)c4cnn5ccc(Br)cc45)c3)no2)C1 [Compound I-280] | ≤ 50 | ≤ 50 | 5000 to 30000 | 2.55 | 5.07 10^−6 cm/s | **** (a solubility less than or equal to 2 μM)
22 | Cc1ccc(-c2noc(C3CC(C)(F)C3)n2)cc1NC(=O)c1cnc2ccccn12 (stereo not drawn) [Compound I-387] | ≤ 50 | ≤ 50 | 50 to 500 | 0.82 | 13.8 10^−6 cm/s | *** (a solubility greater than 2 μM and less than or equal to 10 μM)
23 | Cc1ccc(-c2noc([C@H](C)O)n2)cc1NC(=O)c1cnc2ccccn12 [Compound I-271] | ≤ 50 | 50 to 500 | 500 to 5000 | 29.6 | 1.25 10^−6 cm/s | * (a solubility greater than 50 μM)
